Experimental data reported in patent publication US4868321A, “Isothiocyanate intermediates” (FMC Corporation, priority 1988, dated 1989).

Columns and labels:
Type in all cases: in vivo
Morningglory [1] = assay: Preemergence Herbicidal Activity, Morningglory; conditions: Ipomoea, pre-emergence
Source text: (§1) The herbicidal data in the following Tables 3 and 4 was obtained in the manner described in PCT published application no. WO 85/01939, previously mentioned, usually employing solutions of the herbicidal compound in 50/50 acetone/water mixtures. In those tables, the test compounds are identified by numbers which correspond to those in Table 1, "kg/ha" is kilograms per hectare, and "% C" is percent control.

Johnsongrass [2] = assay: Postemergence Herbicidal Activity, Johnsongrass; conditions: Sorghum halepense, post-emergence
Source text: (§2) The herbicidal data in the following Tables 3 and 4 was obtained in the manner described in PCT published application no. […] In those tables, the test compounds are identified by numbers which correspond to those in Table 1, "kg/ha" is kilograms per hectare, and "% C" is percent control.

Wheat [3] = assay: Preemergence Herbicidal Activity, Wheat; conditions: Triticum aestivum, pre-emergence
Source text: as §2

Green Foxtail [4] = assay: Preemergence Herbicidal Activity, Green Foxtail; conditions: Setaria viridis, pre-emergence
Source text: as §2

Soybean [5] = assay: Postemergence Herbicidal Activity, Soybean; conditions: Glycine max, post-emergence
Source text: as §2

Soybean [6] = assay: Preemergence Herbicidal Activity, Soybean; conditions: Glycine max, pre-emergence
Source text: as §2

Barnyardgrass [7] = assay: Preemergence Herbicidal Activity, Barnyardgrass; conditions: Echinochloa crus-galli, pre-emergence
Source text: as §2

Velvetleaf [8] = assay: Postemergence Herbicidal Activity, Velvetleaf; conditions: Abutilon theophrasti, post-emergence
Source text: as §1

Morningglory [9] = assay: Postemergence Herbicidal Activity, Morningglory; conditions: Ipomoea, post-emergence
Source text: as §1

Rice [10] = assay: Preemergence Herbicidal Activity, Rice; conditions: Oryza sativa, pre-emergence
Source text: as §2

Field Corn [11] = assay: Postemergence Herbicidal Activity, Field Corn; conditions: Zea mays, post-emergence
Source text: as §2

Cotton [12] = assay: Postemergence Herbicidal Activity, Cotton; conditions: Gossypium hirsutum, post-emergence
Source text: as §1

Velvetleaf [13] = assay: Preemergence Herbicidal Activity, Velvetleaf; conditions: Abutilon theophrasti, pre-emergence
Source text: as §1

Barnyardgrass [14] = assay: Postemergence Herbicidal Activity, Barnyardgrass; conditions: Echinochloa crus-galli, post-emergence
Source text: as §2

Green Foxtail [15] = assay: Postemergence Herbicidal Activity, Green Foxtail; conditions: Setaria viridis, post-emergence
Source text: as §2

Cotton [16] = assay: Preemergence Herbicidal Activity, Cotton; conditions: Gossypium hirsutum, pre-emergence
Source text: as §1

Rice [17] = assay: Postemergence Herbicidal Activity, Rice; conditions: Oryza sativa, post-emergence, 0.5 kg/ha
Source text: as §2

Field Corn [18] = assay: Preemergence Herbicidal Activity, Field Corn; conditions: Zea mays, pre-emergence
Source text: as §2

Wheat [19] = assay: Postemergence Herbicidal Activity, Wheat; conditions: Triticum aestivum, post-emergence
Source text: as §2

Johnsongrass [20] = assay: Preemergence Herbicidal Activity, Johnsongrass; conditions: Sorghum halepense, pre-emergence
Source text: as §2

Field Bindweed [21] = assay: Preemergence Herbicidal Activity, Field Bindweed; conditions: pre-emergence
Source text: as §1

Field Bindweed [22] = assay: Postemergence Herbicidal Activity, Field Bindweed; conditions: post-emergence, 8.0 kg/ha
Source text: as §1

CCCS(=O)(=O)N(c1cc(-n2nnn(CCCF)c2=O)c(F)cc1Cl)S(=O)(=O)CCC [Compound 26, 1-[4-chloro-2-fluoro-5-[bis(N--propylsulfonyl)amino]phenyl]-1,4-dihydro-4-(3-fluoropropyl)-5H--tetrazol-5-one]
pest or weed control at 500 g/ha (Morningglory [1]; 0.5 kg/ha): 60%
pest or weed control at 500 g/ha (Johnsongrass [2]; 0.5 kg/ha): 70%
plant injury at 500 g/ha (Wheat [3]; 0.5 kg/ha): 60%
pest or weed control at 500 g/ha (Green Foxtail [4]; 0.5 kg/ha): 60%
plant injury at 500 g/ha (Soybean [5]; 0.5 kg/ha): 50%
plant injury at 500 g/ha (Soybean [6]; 0.5 kg/ha): 0%
pest or weed control at 500 g/ha (Barnyardgrass [7]; 0.5 kg/ha): 100%
pest or weed control at 500 g/ha (Velvetleaf [8]; 0.5 kg/ha): 100%
pest or weed control at 500 g/ha (Morningglory [9]; 0.5 kg/ha): 100%
plant injury at 500 g/ha (Rice [10]; 0.5 kg/ha): 20%
plant injury at 500 g/ha (Field Corn [11]; 0.5 kg/ha): 100%
plant injury at 500 g/ha (Cotton [12]; 0.5 kg/ha): 100%
pest or weed control at 500 g/ha (Velvetleaf [13]; 0.5 kg/ha): 100%
pest or weed control at 500 g/ha (Barnyardgrass [14]; 0.5 kg/ha): 80%
pest or weed control at 500 g/ha (Green Foxtail [15]; 0.5 kg/ha): 80%
plant injury at 500 g/ha (Cotton [16]; 0.5 kg/ha): 50%
plant injury at 500 g/ha (Rice [17]): 40%
plant injury at 500 g/ha (Field Corn [18]; 0.5 kg/ha): 90%
plant injury at 500 g/ha (Wheat [19]; 0.5 kg/ha): 90%
pest or weed control at 500 g/ha (Johnsongrass [20]; 0.5 kg/ha): 95%

CCS(=O)(=O)N(c1cc(-n2nnn(C)c2=O)c(F)cc1Cl)S(=O)(=O)CC [Compound 41, 1-[4-Chloro-2-fluoro-5-[bis(N--ethylsulfonyl)amino]phenyl]-4,5-dihydro-4-methyl-5H--tetrazol-5-one]
pest or weed control at 2000 g/ha (Morningglory [1]; 2.0 kg/ha): 100%
plant injury at 2000 g/ha (Wheat [3]; 2.0 kg/ha): 10%
pest or weed control at 2000 g/ha (Field Bindweed [21]; 2.0 kg/ha): 100%
pest or weed control at 2000 g/ha (Green Foxtail [4]; 2.0 kg/ha): 95%
plant injury at 2000 g/ha (Soybean [6]; 2.0 kg/ha): 50%
pest or weed control at 2000 g/ha (Barnyardgrass [7]; 2.0 kg/ha): 80%
plant injury at 2000 g/ha (Rice [10]; 2.0 kg/ha): 10%
pest or weed control at 2000 g/ha (Velvetleaf [13]; 2.0 kg/ha): 100%
plant injury at 2000 g/ha (Cotton [16]; 2.0 kg/ha): 95%
plant injury at 2000 g/ha (Field Corn [18]; 2.0 kg/ha): 40%
pest or weed control at 2000 g/ha (Johnsongrass [20]; 2.0 kg/ha): 20%

CCCS(=O)(=O)N(c1cc(-n2nnn(CCCF)c2=O)ccc1Cl)S(=O)(=O)CCC [Compound 23]
pest or weed control at 8000 g/ha (Morningglory [1]; 8.0 kg/ha): 70%
pest or weed control at 8000 g/ha (Johnsongrass [2]; 8.0 kg/ha): 40%
pest or weed control at 8000 g/ha (Field Bindweed [22]): 50%
plant injury at 8000 g/ha (Wheat [3]; 8.0 kg/ha): 40%
pest or weed control at 8000 g/ha (Field Bindweed [21]; 8.0 kg/ha): 70%
pest or weed control at 8000 g/ha (Green Foxtail [4]; 8.0 kg/ha): 95%
plant injury at 8000 g/ha (Soybean [5]; 8.0 kg/ha): 40%
plant injury at 8000 g/ha (Soybean [6]; 8.0 kg/ha): 10%
pest or weed control at 8000 g/ha (Barnyardgrass [7]; 8.0 kg/ha): 80%
pest or weed control at 8000 g/ha (Velvetleaf [8]; 8.0 kg/ha): 100%
pest or weed control at 8000 g/ha (Morningglory [9]; 8.0 kg/ha): 60%
plant injury at 8000 g/ha (Rice [10]; 8.0 kg/ha): 20%
plant injury at 8000 g/ha (Field Corn [11]; 8.0 kg/ha): 30%
plant injury at 8000 g/ha (Cotton [12]; 8.0 kg/ha): 60%
pest or weed control at 8000 g/ha (Velvetleaf [13]; 8.0 kg/ha): 100%
pest or weed control at 8000 g/ha (Barnyardgrass [14]; 8.0 kg/ha): 40%
pest or weed control at 8000 g/ha (Green Foxtail [15]; 8.0 kg/ha): 40%
plant injury at 8000 g/ha (Cotton [16]; 8.0 kg/ha): 30%
plant injury at 8000 g/ha (Field Corn [18]; 8.0 kg/ha): 90%
plant injury at 8000 g/ha (Wheat [19]; 8.0 kg/ha): 20%
pest or weed control at 8000 g/ha (Johnsongrass [20]; 8.0 kg/ha): 50%
